This note sets out measurements from patent US20040097422A1, “Methods of use for tripeptidyl peptidase II inhibitors as anticancer agents” (priority 2002, published 2004).

Common to all, as to type: cell-based, human
Assay [1] has as its system U20S/centrin-GFP cells. Put plainly: Abnormal centriole numbers in transiently transfected U20S/centrin-GFP cells after inhibitor treatment. The source says:
(§1) Cell Culture and Transfections. Normal human keratinocytes (NHKs) were isolated from neonatal foreskins and cultured as described previously (Jones, et al. 1997 Genes Dev 11, 2101-11). NHKs were transiently transfected using FuGENE 6 (Roche Molecular Biochemicals, Indianapolis, Ind.) according to manufacturer's instructions. The human osteosarcoma cell line U20S was obtained from the American Type Culture Collection (ATCC) and maintained in Dulbecco's modified Eagle medium (DMEM) supplemented with 10% fetal bovine serum, 50 units/ml penicillin and 50 μg/ml streptomycin. Stable populations expressing centrin-GFP were generated by transfecting U20S cells with 10 μg of a centrin-GFP construct using calcium phosphate co-precipitation (Chen, et al. 1987 Mol Cell Biol 7, 2745-2752) and expansion of stable clones after G418 selection. All transient transfection experiments in U20S/centrin-GFP cells were performed using calcium phosphate coprecipitation (Chen, 1987 Mol Cell Biol 7, 2745-2752). Expression plasmids used were c-Myc, E2F-1, HPV-16 E7, HPV-16 E6, or a hemagglutinin-tagged dominant-negative DP1 mutant (DP 1-HA). Empty vector controls (pCMVneo) were included in all experiments. In all transient transfection experiments, cells were co-transfected with either farnesylatable green fluorescent protein (GFP), DsRed fluorescent protein, or cyan fluorescent protein (CFP; all from Clontech, Inc., Palo Alto, Calif.) as indicated and only cells expressing the respective fluorescent protein were evaluated. The human Burkitt's lymphoma cell line GA-10 was obtained from ATCC and maintained in RPMI 1640 medium containing 10 mM HEPES and supplemented with 10% fetal bovine serum, 50 units/ml penicillin and 50 μg/ml streptomycin. Adapted GA-10 cells were obtained by cultivation of cells in the presence of 1 μM clastolactacystin β-lactone (CLBL; Sigma Corp., St. Louis, Mo.) or 0.1% dimethyl sulfoxide (DMSO; ICN, Inc., Costa Mesa, California).
Proteasome and TPPII inhibition. U20S/centrin-GFP cells were transiently transfected with expression plasmids as indicated using calcium phosphate coprecipitation, washed with PBS 14 hours after transfection, incubated in normal growth media for 8 hours, and incubated in the presence of the inhibitor for another 24 hours. For proteasome inhibition, clastolactacystin β-lactone (CLBL; Sigma Corp.) was used at a […] concentration dissolved in DMSO. The TPPII inhibitor H-Ala-Ala-Phe-chloromethylketone (AAF-CMK; Sigma Corp.) was used at a 1 or 10 μM concentration, respectively, dissolved in DMSO. TPPII inhibitors such as AAF-MCA (ala-ala-phe-methylcoumarin amide) are available from Peptides International, Inc., Louisville, Ky. […] Solvent controls (DMSO or water) were included in all experiments.
Whether this observed increase of cells with abnormal centrosome numbers results from a primary duplication error was further addressed by analyzing the ability of c-Myc to induce abnormal centriole synthesis under transient conditions. Centriole number abnormalities induced by c-Myc were compared to those obtained with different oncogenic stimuli which have been reported previously to deregulate centrosome duplication (Duensing, 2000 Proc Natl Acad USA 97, 10002-7). Besides c-Myc, each of HPV-16 E7, the cooperating oncogene HPV-16 E6, and E2F-1 were included in these experiments. U20S/centrin-GFP cells were transiently transfected with expression plasmids as indicated, and mitochondrial DsRed fluorescent protein was used as a transfection marker (FIGS. 2c,d). Since duplication of centrioles prior to a cell division gives rise to four centrioles, cells with more than four centrioles were considered to have an abnormal number of centrioles.
Analogous to cell cycle progression, centrosome duplication requires activity of the ubiquitin/proteasome machinery (Freed, et al. 1999 Gene Dev 13, 2242-57). […]

The test system of assay [2] is U20S/centrin-GFP cells. Put plainly: DNA content / cell cycle profile by propidium iodide flow cytometry. The note with it: 10 μM, 24 hours. As for the experimental part:
Flow cytometry. DNA content of cells was analyzed by propidium iodide staining followed by flow cytometry as described previously (Thompson, et al. 1997 Oncogene 15, 3025-35).
A general note: In flow cytometry, cells or beads pass a laser one at a time.

A further assay has as its system TPPII. Put plainly: TPPII protein level in adapted GA-10 cells (immunoblot). As to conditions: GA-10 cells adapted to 1 μM CLBL. As for the experimental part:
Immunological Methods. Immunoblot analysis was performed as described previously (Jones et al., 1997). Antibodies used were directed against c-Myc (9E10; Covance/Babco, Berkeley, California), p53 (Ab-6; Oncogene Research Products, Inc., San Diego, Calif.), HPV-16 E7 (ED17; Santa Cruz Biotechnology, Inc., Santa Cruz, California), E2F-1 (C-20; Santa Cruz), HA (12CA5; Boehringer Mannheim, Mannheim, Germany), tripetidyl peptidase II (OEM Concepts, Inc.; Toms River, New Jersey), or Actin (C-2, Santa Cruz).
Based on observations herein that TPPII is required for c-Myc induced abnormal centriole duplication, the effect of growth of cells in the presence of a proteasome inhibitor on altered centrosome numbers, control of centrosome duplication, and cell viability was examined. Cells of a human t(8;14) positive, Epstein-Barr virus (EBV) negative Burkitt's lymphoma cell line GA-10 were used. Cells were grown in the presence of 1 μM CLBL (proteosome inhibitor clastolactacystin β-lactone) or with 0.1% DMSO as a solvent control.
A general note: In western blotting, separated proteins are transferred to a membrane and probed.

Assay [3] concerns Burkitt's lymphoma cell line GA-10. Put plainly: Viability of GA-10 cells grown with proteasome inhibitor (trypan blue exclusion). As for the experimental part:
FIG. […] FIG. 5b is an immunoblot analysis of TPPII and c-Myc expression in GA-10 cells adapted to grow in the presence of 1 μM CLBL or 0.1% DMSO. FIG. 5c is a visualizations of centrosomes in GA-10 cells adapted to grow in the presence of 0.1% DMSO (c) or 1 μM CLBL right. Immunofluorescence for γ-tubulin is rhodamine red. Nuclei were stained with DAPI. […] Each bar indicates average+standard error of triplicate colony counts.
as §1, with “The human Burkitt's lymphoma cell line GA-10 was obtained from ATCC and maintained in RPMI 1640 medium containing 10 mM HEPES and supplemented with 10% fetal bovine serum, 50 units/ml penicillin and 50 μg/ml streptomycin. Adapted GA-10 cells were obtained by cultivation of cells in the presence of 1 μM clastolactacystin β-lactone (CLBL; Sigma Corp., St. Louis, Mo.) or 0.1% dimethyl sulfoxide (DMSO; ICN, Inc., Costa Mesa, California).” left out

In the next assay the test system is GA-10 cells. Put plainly: Abnormal centrosome numbers in GA-10 cells by γ-tubulin immunofluorescence. The note with it: GA-10 cells adapted to 1 μM CLBL; untreated 18.7%, DMSO 19.9%. As for the experimental part:
For immunofluorescence analysis, sections of formalin-fixed, paraffin-embedded tissue were processed as described previously (Duensing, 2000 Proc Natl Acad 801 USA 97, 10002-7). Cultured cells were either grown on coverslips or cytospin preparations were made from cells growing in suspension. Cells were fixed in 4% paraformaldehyde in PBS and permeabilized with 1% Triton-X 100 in PBS for 10 min each at room temperature. […] Ki-67 was detected using a mouse monoclonal antibody (clone Ki-67; Dako Cytomation California, Inc., Carpinteria, California) at a 1:100 dilution followed by a rhodomine red-labeled donkey anti-mouse secondary antibody as described above. […] Cells were analyzed using a Leica DMLB epifluorescence microscope equipped with a multiband and a CFP filter set (Omega Optical, Brattleboro, Vt.) and a Sony DKC5000 camera system. […]
The proportion of cells with abnormal centrosome numbers was determined using immunofluorescence microscopy for γ-tubulin. […]

For assay [4], the system named is CLBL-adapted GA-10 cells. Put plainly: Growth (viable cell number) of CLBL-adapted GA-10 cells. As to conditions: 0.1, 1.0, 10, 100 or 500 μM butabindide. As for the experimental part: (§2) FIG. 5a is an analysis of viability of GA-10 cells grown in the presence of 1 μM CLBL or solvent control (0.1% DMSO) as determined by trypan blue exclusion. FIG. 5b is an immunoblot analysis of TPPII and c-Myc expression in GA-10 cells adapted to grow in the presence of 1 μM CLBL or 0.1% DMSO. FIG. 5c is a visualizations of centrosomes in GA-10 cells adapted to grow in the presence of 0.1% DMSO (c) or 1 μM CLBL right. Immunofluorescence for γ-tubulin is rhodamine red. Nuclei were stained with DAPI. […] Each bar indicates average+standard error of triplicate colony counts.
(§3) Centrosome duplication is necessary for orderly progression through mitosis and re-entry in the cell cycle (Hinchcliffe, et al. 2001 Genes Dev 15, 1167-81) in most mammalian cells. Whether TPPII activity is necessary for the growth of CLBL-adapted Burkitt's lymphoma cells was investigated.

In assay [5] the test system is CLBL-adapted GA-10 cells. Put plainly: Soft agar colony formation (clonogenic assay). The note with it: 10 μM butabindide, one week. As for the experimental part:
Clonogenic assay. For assessment of soft agar colony formation, adapted GA-10 cells were suspended in 37° C.
as §3

Assay [6] relates to U20S/centrin-GFP cells. Put plainly: Simultaneous Ki-67 proliferation and centriole number assay in c-Myc transfected cells. The note with it: 10 μM butabindide for 24 hours. As for the experimental part: For immunofluorescence analysis, sections of formalin-fixed, paraffin-embedded tissue were processed as described previously (Duensing, 2000 Proc Natl Acad 801 USA 97, 10002-7). Cultured cells were either grown on coverslips or cytospin preparations were made from cells growing in suspension. Cells were fixed in 4% paraformaldehyde in PBS and permeabilized with 1% Triton-X 100 in PBS for 10 min each at room temperature. Cells were then blocked with 10% normal donkey serum (Jackson Immunoresearch, West Grove, Pa.) and incubated with a mouse monoclonal anti-γ-tubulin antibody (GTU-88; Sigma Corp.; St. Louis, Mo.) at a 1:2000 dilution overnight at 4° C. followed by a donkey anti-mouse rhodamine red conjugated secondary antibody (Jackson ImmunoResearch Laboratories, Inc., West Grove, Pa.) at a 1:100 dilution in PBS or a donkey anti-mouse FITC labeled secondary antibody at a 1:200 dilution in PBS for 2 hours at 37° C. Ki-67 was detected using a mouse monoclonal antibody (clone Ki-67; Dako Cytomation California, Inc., Carpinteria, California) at a 1:100 dilution followed by a rhodomine red-labeled donkey anti-mouse secondary antibody as described above. […] Cells were analyzed using a Leica DMLB epifluorescence microscope equipped with a multiband and a CFP filter set (Omega Optical, Brattleboro, Vt.) and a Sony DKC5000 camera system. […]

In assay [7] the test system is CLBL-adapted Burkitt's lymphoma cells. Put plainly: Mitotic spindle formation / centrosome function. As to conditions: butabindide treated. As for the experimental part: as §2, §3

Molecules are shown by their SMILES. Entries after “also recorded” stand apart in the source; their conditions may differ. Residues, ends and D or L forms follow the SMILES beside them. *: point of attachment. CH2Cl = ClC*

Turning to `C[C@H](N)C(=O)N[C@@H](C)C(=O)N[C@@H](Cc1ccccc1)C(=O)CCl` [AAF-CMK, H-Ala-Ala-Phe-chloromethylketone] (H-Ala-Ala-Phe-CH2Cl), the “Significance of decrease in abnormal centriole numbers, c-Myc transfected cells” value in the assay on U20S/centrin-GFP cells [1] (1 μM AAF-CMK, p≦0.05) is “statistically significant”. For the same molecule, the “Changes in abnormal centriole numbers in E2F-1 or HPV-16 E7 expressing cells” value in the assay on U20S/centrin-GFP cells [1] (E2F-1 or HPV-16 E7 transfected, AAF-CMK for 24 hours) is “not significant”. In the assay on U20S/centrin-GFP cells [1] (c-Myc transfected, 1 and 10 μM AAF-CMK for 24 hours), the “Proportion of c-Myc expressing cells with abnormal centriole numbers” value is on record as “Reduction of the proportion of c-Myc expressing cells with abnormal centriole numbers”. In the assay on U20S/centrin-GFP cells [2], the “Cell cycle profile (DNA content)” value is listed as “neither treatment of cells with 10 μM AAF-CMK, nor with 10 μM butabindide, was found to substantially alter the cell cycle profile”.
As for `CC(C)[C@H](O)[C@@]12NC(=O)[C@H](C)[C@@H]1OC2=O` [CLBL, clastolactacystin β-lactone], the “Protein levels of TPPII” value in the assay on TPPII was “increased protein levels of TPPII”. Also, in assay [3] (1 μM CLBL), the “Cell viability of GA-10 cells” value is listed as “marked decrease of cell viability” and the “Time until cell survival was restored” value is listed as at most 10 days. For the same molecule, the “Cell viability of GA-10 cells at higher concentrations” value in [3] (higher concentrations of CLBL than 1 μM) is “massive cell death”. Also, the “Proportion of cells with abnormal centrosome numbers” value in the assay on GA-10 cells is listed as 19.4%. The “Decrease of abnormal centriole duplication driven by E2F-1” value in the assay on U20S/centrin-GFP cells [1] (E2F-1 transfected, 0.8 mM CLBL for 24 hours, p≦0.05) came to 1.7 fold. The “Decrease of abnormal centriole duplication driven by HPV-16 E7” value in the assay with U20S/centrin-GFP cells [1] (HPV-16 E7 transfected, 0.8 mM CLBL for 24 hours, p≦0.01) is listed as 2 fold. Moreover, the “Proportion of cells with abnormal centriole numbers in cells expressing c-Myc” value in the assay on U20S/centrin-GFP cells [1] (c-Myc transfected, 0.8 mM CLBL for 24 hours) is reported as “did not significantly reduce”.
As for `CCCCNC(=O)[C@@H]1Cc2ccccc2N1C(=O)[C@@H](N)CC` [butabindide], the “Number of c-Myc expressing cells with abnormal centriole numbers” value in the assay on U20S/centrin-GFP cells [1] (c-Myc transfected, butabindide increasing concentrations up to 10 μM, 24 hours, p≦0.001) was “dose-dependent and statistically highly significant reduction; also recorded: completely blocks abnormal centriole duplication”. The “Growth of CLBL-adapted GA-10 cells” value with CLBL-adapted GA-10 cells [4] is listed as “reduced the growth of CLBL-adapted GA-10 cells in a dose dependent manner”. The “Cell cycle profile (DNA content)” value in the assay on U20S/centrin-GFP cells [2] was “neither treatment of cells with 10 μM AAF-CMK, nor with 10 μM butabindide, was found to substantially alter the cell cycle profile”. The “Colony formation in soft agar” value in the assay on CLBL-adapted GA-10 cells [5] is recorded as “significantly suppressed colony formation”. For the same molecule, in the assay on U20S/centrin-GFP cells [6], the “Ki-67 negative growth arrested cells” value is listed as “major increases of Ki-67 negative growth arrested cells were not observed”. Also, the “Number of c-Myc expressing cells with abnormal centriole numbers (mostly Ki-67 positive)” value with U20S/centrin-GFP cells [6] (CFP transfection marker) is reported as “decrease in the number of c-Myc expressing cells with abnormal centriole numbers”. In assay [7], the “Spindle formation in treated cells” value is on record as “abrogation of spindle formation”. Moreover, the “Cells unable to nucleate a microtubule spindle” value in assay [7] (44% without) worked out at 66%.
